{"source": "patent US10406169B2", "about": "“Methods of monitoring estriol therapy” (The Regents of the University of California, priority 2015, dated 2019)", "assay_type_in_all_cases": "in vivo, human", "key": {"[1]": {"test": "Serum estriol levels in the clinical trial", "description": "Safety assessments, including clinical, blood laboratory safety testing and assessments of estriol levels, occurred at months 0, 3, 6, 12, 18, and 24. On study blood tests included complete blood count (CBC) with differential and platelets; chemistry panel including sodium, potassium, creatinine, BUN, glucose, total protein, albumin, bilirubin (total), alkaline phosphatase, AST (SGOT), and ALT (SGPT), and lipid profile (HDL, LDL and triglycerides, cholesterol. Gynecologic exams were done at month 0, 6, 18 and at month 24 exit, with uterine ultrasounds at months 6, 18 and at month 24 exit. Mammograms were done in screening and at month 24 exit. Adverse event analysis was based on the percentage of patients who discontinued the study and the percentage of patients who discontinued the study possibly due to adverse events.\nFree estriol levels were also measured and followed a similar pattern of change within individuals as total levels, with absolute free levels a fraction of the magnitude of the absolute total levels as expected."}, "[2]": {"test_system": "relapsing-remitting multiple sclerosis", "test": "Disability and questionnaire outcomes (EDSS, MFIS, BDI, MSQOL)", "conditions": "for Proportion of pts with disability (EDSS) progression at 24 months % (95% CI): Kaplan-Meier", "description": "EDSS assessments were performed by physicians who were trained either by in-person training or online (www.Neurostatus.net). […] Tertiary end points included gray matter atrophy on MRI, and changes in results from baseline on questionnaires including the Modified Fatigue Impact Scale, Beck Depression Inventory, and MS Quality of Life. Mixed effects negative binomial regression model and linear mixed effects model were used to compare enhancing lesion volume (log-transformed) between treatment groups at all follow-ups, and mixed effects logistic model was used to compare the number of subjects positive for gadolinium enhancing lesions. Linear mixed effects model was carried out to compare the percent change in whole gray matter and cortical gray matter between treatment groups."}, "[3]": {"test_system": "relapsing-remitting multiple sclerosis", "test": "MRI brain volumes (pairwise Jacobian integration)", "description": "Mixed effects negative binomial regression model and linear mixed effects model were used to compare enhancing lesion volume (log-transformed) between treatment groups at all follow-ups, and mixed effects logistic model was used to compare the number of subjects positive for gadolinium enhancing lesions. Linear mixed effects model was carried out to compare the percent change in whole gray matter and cortical gray matter between treatment groups. For the exploratory endpoints of EDSS, PASAT, fatigue, depression, quality of life and brain volume measures, linear mixed effects model was used to compare treatment groups at 12 and 24 months.\nDual-echo fast spin echo: TR10000, TE12/95, 50 slices, 1×1×3 mm. Fluid attenuated inversion recovery (FLAIR): TR10380, TE88, TI88, TI2500, 50 slices, 1×1×3 mm. Minor changes were allowed to accommodate different platforms and field strengths at each site. MRI data in Dicom format were fully anonymized prior to transfer and then uploaded to the central MRI reading center database. Prior to study onset, each site provided a dummy scan utilizing the standardized sequences for review by the central MRI reading center to verify scan quality and fidelity. Quality control was maintained at each site using standard procedures for clinical scanners (daily phantoms, stability testing). Quarterly phantoms were collected from 12 of the 15 sites, most using the standard American College of Radiology (ACR) phatom. One site upgraded from a Siemens 1.5T to a 3.0T in November 2013, resulting in the acquisition of one month 24 scan on the new scanner. One site upgraded from a Phillips Achieva 3.0T to a Pillips Intera 3.0T after the first subject completed month 24. All subsequent studies were performed on the Intera.\nMRI brain, whole gray matter, whole white matter and cortical gray matter volumes were determined using a pairwise Jacobian integration (PJI) method. Pre-processing for structural T1-weighted images included 1) N3 non-uniformity correction, 2) histogram-based intensity normalization, 3) linear standard space registration using ICBM 2009c nonlinear symmetric template, 4) patch-based brain extraction, and 5) lesion-inpainting. Inputs to PJI were a pair of baseline and follow-up pre-processed structural T1-weighed images. The PJI consisted of 1) linear skull-constrained symmetric registration, 2) halfway transformation and resampling, 3) nonlinear symmetric registration using ANTS, and 4) voxelwise Jacobian determinant calculation on the warp field. Whole gray matter and whole white matter tissue masks were generated by SPM8 Segment function. Additional nonlocal means denoising was applied. For whole brain tissue masks, the whole gray matter and whole white matter masks were combined. For cortical gray matter mask, a standard cortical mask was nonlinearly transformed and merged with gray matter mask. The standard template was the ICBM (ICBM 2009c nonlinear symmetric version), and the nonlinear registration was performed by ANTS. Finally, the Jacobian determinants were averaged within the masks for percent volume change in cortical gray matter, whole gray matter, whole white matter, and whole brain."}, "[4]": {"conditions": "24 months, negative = improvement"}, "[5]": {"conditions": "Baseline to 12 months, all patients"}, "[6]": {"conditions": "Baseline to 12 months, all patients, listed as Placebo+GA"}, "[7]": {"conditions": "Baseline to 12 months, patients with enhancing lesions at baseline"}, "[8]": {"conditions": "Baseline to 12 months, patients without enhancing lesions at baseline"}, "[9]": {"conditions": "Baseline to 12 months, patients without enhancing lesions at baseline, listed as Placebo+GA"}, "[10]": {"conditions": "Baseline to 24 months, all patients"}, "[11]": {"conditions": "Baseline to 24 months, patients with enhancing lesions at baseline"}, "[12]": {"conditions": "Baseline to 24 months, patients without enhancing lesions at baseline"}}}
{"substance": "glatiramer acetate [Placebo + GA]", "values": [{"measurement": "Serum total estriol level, Mean ± SD", "setting": "[1]; Month 0", "result": "2.1 ± 2.3", "unit": "ng/mL"}, {"measurement": "Serum total estriol level, Median", "setting": "[1]; Month 0", "result": 1.6, "unit": "ng/mL"}, {"measurement": "Serum estriol concentrations (in words)", "setting": "[1]; Month 3", "result": "did not exceed the estriol assay detection limit"}, {"measurement": "Serum total estriol level, Mean ± SD", "setting": "[1]; Month 3", "result": "2.1 ± 1.6", "unit": "ng/mL"}, {"measurement": "Serum total estriol level, Median", "setting": "[1]; Month 3", "result": 1.8, "unit": "ng/mL"}, {"measurement": "Serum total estriol level, Mean ± SD", "setting": "[1]; Month 6", "result": "1.9 ± 1.4", "unit": "ng/mL"}, {"measurement": "Serum total estriol level, Median", "setting": "[1]; Month 6", "result": 1.8, "unit": "ng/mL"}, {"measurement": "Serum total estriol level, Mean ± SD", "setting": "[1]; Month 12", "result": "2.0 ± 1.4", "unit": "ng/mL"}, {"measurement": "Serum total estriol level, Median", "setting": "[1]; Month 12", "result": 1.8, "unit": "ng/mL"}, {"measurement": "Serum total estriol level, Mean ± SD", "setting": "[1]; Month 18", "result": "1.8 ± 1.2", "unit": "ng/mL"}, {"measurement": "Serum total estriol level, Median", "setting": "[1]; Month 18", "result": 1.8, "unit": "ng/mL"}, {"measurement": "Serum total estriol level, Mean ± SD", "setting": "[1]; Month 24", "result": "1.8 ± 1.1", "unit": "ng/mL"}, {"measurement": "Serum total estriol level, Median", "setting": "[1]; Month 24", "result": 1.6, "unit": "ng/mL"}, {"measurement": "Beck Depression Inventory (BDI) score median change from baseline", "setting": "[2]; [4]", "result": "−3.5"}, {"measurement": "MFIS score median change from baseline", "setting": "[2]; [4]", "result": 0}, {"measurement": "Proportion of pts with disability (EDSS) progression at 24 months % (95% CI)", "setting": "[2]", "result": "15.8 (8.8-27.6) %"}, {"measurement": "Proportion of pts with disability (EDSS) progression at 24 months % (95% CI)", "setting": "[2]; listed as Placebo plus GA", "result": 15.8, "unit": "%"}, {"measurement": "MSQOL composite scores for Physical outcomes", "setting": "[2]; change from baseline", "result": "no change"}, {"measurement": "EDSS score reduction from baseline to Month 24, Mean ± SD", "setting": "[2]; in vivo", "result": "0.05 ± 1.13"}, {"measurement": "EDSS score reduction from baseline to Month 24, Median", "setting": "[2]; in vivo", "result": 0.0}, {"measurement": "EDSS absolute median change from baseline", "setting": "[2]; month 24, negative = improvement", "result": 0}, {"measurement": "Cortical gray matter baseline volume", "setting": "[3]; Baseline", "result": "761 ± 42", "unit": "cc"}, {"measurement": "White matter baseline volume", "setting": "[3]; Baseline", "result": "640 ± 32", "unit": "cc"}, {"measurement": "Whole brain baseline volume", "setting": "[3]; Baseline", "result": "1602 ± 51", "unit": "cc"}, {"measurement": "Whole gray matter baseline volume", "setting": "[3]; Baseline", "result": "926 ± 52", "unit": "cc"}, {"measurement": "Cortical gray matter volume % change, Mean ± SE", "setting": "[3]; [5]", "result": "−0.74 ± 0.81, %"}, {"measurement": "Cortical gray matter volume % change, median", "setting": "[3]; [5]", "result": "−0.69", "unit": "%"}, {"measurement": "White matter volume % change, Mean ± SE", "setting": "[3]; [5]", "result": "−0.21 ± 0.82, %"}, {"measurement": "White matter volume % change, median", "setting": "[3]; [5]", "result": "−0.15", "unit": "%"}, {"measurement": "Whole brain volume % change, Mean ± SE", "setting": "[3]; [5]", "result": "−0.49 ± 0.63, %"}, {"measurement": "Whole brain volume % change, median", "setting": "[3]; [5]", "result": "−0.43", "unit": "%"}, {"measurement": "Whole gray matter volume % change, Mean ± SE", "setting": "[3]; [5]", "result": "−0.68 ± 0.71, %"}, {"measurement": "Whole gray matter volume % change, median", "setting": "[3]; [5]", "result": "−0.66", "unit": "%"}, {"measurement": "Cortical gray matter volume % change, Mean ± SE", "setting": "[3]; [6]", "result": "−0.74", "unit": "%"}, {"measurement": "Whole gray matter volume % change, Mean ± SE", "setting": "[3]; [6]", "result": "−0.68", "unit": "%"}, {"measurement": "Cortical gray matter volume % change, Mean ± SE", "setting": "[3]; [7]", "result": "−0.67 ± 0.72, %"}, {"measurement": "Cortical gray matter volume % change, median", "setting": "[3]; [7]", "result": "−0.69", "unit": "%"}, {"measurement": "White matter volume % change, Mean ± SE", "setting": "[3]; [7]", "result": "−0.36 ± 1.06, %"}, {"measurement": "White matter volume % change, median", "setting": "[3]; [7]", "result": "−0.14", "unit": "%"}, {"measurement": "Whole gray matter volume % change, Mean ± SE", "setting": "[3]; [7]", "result": "−0.65 ± 0.64, %"}, {"measurement": "Whole gray matter volume % change, median", "setting": "[3]; [7]", "result": "−0.64", "unit": "%"}, {"measurement": "Cortical gray matter volume % change, Mean ± SE", "setting": "[3]; [8]", "result": "−0.76 ± 0.85, %"}, {"measurement": "Cortical gray matter volume % change, median", "setting": "[3]; [8]", "result": "−0.73", "unit": "%"}, {"measurement": "White matter volume % change, Mean ± SE", "setting": "[3]; [8]", "result": "−0.15 ± 0.71, %"}, {"measurement": "White matter volume % change, median", "setting": "[3]; [8]", "result": "−0.15", "unit": "%"}, {"measurement": "Whole gray matter volume % change, Mean ± SE", "setting": "[3]; [8]", "result": "−0.70 ± 0.74, %"}, {"measurement": "Whole gray matter volume % change, median", "setting": "[3]; [8]", "result": "−0.66", "unit": "%"}, {"measurement": "Cortical gray matter volume % change, Mean ± SE", "setting": "[3]; [9]", "result": "−0.76", "unit": "%"}, {"measurement": "Whole gray matter volume % change, Mean ± SE", "setting": "[3]; [9]", "result": "−0.70", "unit": "%"}, {"measurement": "Cortical gray matter volume % change, Mean ± SE", "setting": "[3]; [10]", "result": "−1.05 ± 0.86, %"}, {"measurement": "Cortical gray matter volume % change, median", "setting": "[3]; [10]", "result": "−0.94", "unit": "%"}, {"measurement": "White matter volume % change, Mean ± SE", "setting": "[3]; [10]", "result": "−0.52 ± 1.12, %"}, {"measurement": "White matter volume % change, median", "setting": "[3]; [10]", "result": "−0.54", "unit": "%"}, {"measurement": "Whole brain volume % change, Mean ± SE", "setting": "[3]; [10]", "result": "−0.77 ± 0.72, %"}, {"measurement": "Whole brain volume % change, median", "setting": "[3]; [10]", "result": "−0.88", "unit": "%"}, {"measurement": "Whole gray matter volume % change, Mean ± SE", "setting": "[3]; [10]", "result": "−0.95 ± 0.75, %"}, {"measurement": "Whole gray matter volume % change, median", "setting": "[3]; [10]", "result": "−0.93", "unit": "%"}, {"measurement": "Cortical gray matter volume % change, Mean ± SE", "setting": "[3]; [11]", "result": "−0.82 ± 0.80, %"}, {"measurement": "Cortical gray matter volume % change, median", "setting": "[3]; [11]", "result": "−0.93", "unit": "%"}, {"measurement": "White matter volume % change, Mean ± SE", "setting": "[3]; [11]", "result": "−0.62 ± 0.97, %"}, {"measurement": "White matter volume % change, median", "setting": "[3]; [11]", "result": "−0.84", "unit": "%"}, {"measurement": "Whole gray matter volume % change, Mean ± SE", "setting": "[3]; [11]", "result": "−0.82 ± 0.70, %"}, {"measurement": "Whole gray matter volume % change, median", "setting": "[3]; [11]", "result": "−0.92", "unit": "%"}, {"measurement": "Cortical gray matter volume % change, Mean ± SE", "setting": "[3]; [12]", "result": "−1.12 ± 0.88, %"}, {"measurement": "Cortical gray matter volume % change, median", "setting": "[3]; [12]", "result": "−0.94", "unit": "%"}, {"measurement": "White matter volume % change, Mean ± SE", "setting": "[3]; [12]", "result": "−0.46 ± 1.17, %"}, {"measurement": "White matter volume % change, median", "setting": "[3]; [12]", "result": "−0.48", "unit": "%"}, {"measurement": "Whole gray matter volume % change, Mean ± SE", "setting": "[3]; [12]", "result": "−0.98 ± 0.77, %"}, {"measurement": "Whole gray matter volume % change, median", "setting": "[3]; [12]", "result": "−0.92", "unit": "%"}]}
